{"source": "paper PMC6468747", "about": "(Cancers, 2019)", "key": {"[1]": {"target": "T1, Mnk1 (Homo sapiens, UniProt Q9BUB5)", "T1 construct": "incubated with recombinant full length Mnk1 proteins or cell lysates overnight at 4 °C; GST", "T1 sequence (Q9BUB5 whole entry)": "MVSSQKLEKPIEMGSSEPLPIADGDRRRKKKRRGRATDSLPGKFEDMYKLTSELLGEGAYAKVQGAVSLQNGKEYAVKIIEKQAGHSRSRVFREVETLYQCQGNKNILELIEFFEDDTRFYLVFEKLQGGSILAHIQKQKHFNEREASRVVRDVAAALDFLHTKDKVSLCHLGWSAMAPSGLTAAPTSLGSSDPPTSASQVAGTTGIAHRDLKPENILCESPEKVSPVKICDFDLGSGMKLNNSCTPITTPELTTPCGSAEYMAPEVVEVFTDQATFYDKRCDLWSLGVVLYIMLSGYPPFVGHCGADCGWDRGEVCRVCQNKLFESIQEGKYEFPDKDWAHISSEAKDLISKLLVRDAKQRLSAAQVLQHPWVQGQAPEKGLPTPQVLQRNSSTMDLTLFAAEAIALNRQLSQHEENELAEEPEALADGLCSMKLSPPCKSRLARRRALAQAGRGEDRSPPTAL", "experiment": "Surface plasmon resonance (OpenSPR) binding to immobilized GST-Mnk1", "settings": "SPR, 1.25, 10 and 30 µM, 1:1 Langmuir model, 30 °C, scouting analysis; read-out: dissociation constant (KD)", "description": "Purified recombinant Mnk1 protein with GST tag (2.5 µg/mL) was fixed on GST sensor chip (Nicoya) by capture-coupling, then VNLG-152R (1.25, 10 and 30 µM) were injected (flow rate of 20 µL/min) sequentially into the chamber in running buffer (PBS-T with 10% DMSO). The interaction of Mnk1 with VNLG-152R was detected by Open SPRTM (Nicoya Lifesciences, Kitchener, ON, Canada) at 30 °C. The chip was regenerated with regeneration solution (10 mM glycine-HCL) at a flow rate of 150 µL/min. The close curve fitting to the sensograms were calculated by global fitting curves (1:1 Langmuir binding model). The data was retrieved and analyzed with TraceDraw software (Kitchener, ON, Canada)."}, "[2]": {"tested_on": "eIF4F complex", "experiment": "m7GTP pull-down of eIF4F complex in TNBC cells", "assay_type": "cell-based, human", "settings": "20 µM, 24 h, MDA-MB-231 and MDA-MB-468", "description": "eIF4F complex in cell extracts was detected using affinity chromatography 7-methyl GTP (m7GTP)-Sepharose as described previously. Briefly, MDA-MB-231 treated with 20 μM VNLG-152 for 24 h were lysed in buffer containing 20 mM Tris-HCl (pH 7.4), 150 mM NaCl, 1 mM EDTA, 1 mM EGTA, 1 mM β-glycerophosphate, 1 mM Na3VO4, 1% Triton X-100, 2.5 mM sodium pyrophosphate, and protease inhibitor cocktail, on ice for 15 min. After centrifugation at 12,000× g for 15 min at 4 °C, the supernatants were collected and incubated with m7GTP-Sepharose (GE Healthcare Bio-Sciences Corp./Amersham, Piscataway, NJ, USA) at 4 °C for 2 h with constant shaking. Beads were washed three times with lysis buffer and three times with 1× Phosphate Buffered Salin, (PBS). The samples were then denatured, and the supernatants were then loaded to SDS-PAGE for immunoblotting."}, "[3]": {"tested_on": "MDA-MB-231 cells", "experiment": "Head-to-head MTT antiproliferative assay, 6-day exposure", "assay_type": "cell-based, human", "description": "(§1) Figure 2 VNLG-152R inhibits mTORC1 signaling and the production of pro-inflammatory cytokines. (A) MDA-MB-231 and MDA-MB-468 cells were treated with the indicated concentrations of VNLG-152R for 72 h. Cell lysates were analyzed by immunoblotting with the indicated antibodies. (B) Head-to-head antiproliferative effects of VNLG-152R and eFT508 on MDA-MB-231 and MDA-MB-468 cells. The dose-response curves were generated from MTT assays after 6-day exposure to different concentrations of the compounds. Each point is a mean of replicates from three independent experiments. (C–E) MDA-MB-231 cell were treated with the indicated concentration of VNLG-152R or eFT508 for 72 h. Cell supernatants were collected, and the indicated cytokines were quantitated by Multiplex Luminex assay.\n(§2) Cell growth inhibition assay was performed as described previously. For cell growth experiment, cells were treated with the VNLG-152R, VNLG-152E1 or VNLG-15E2 for 7 days. MTT assay was performed at the end of the experiment. Results represent the mean ± standard deviation of three independent experiments."}, "[4]": {"tested_on": "MDA-MB-468 cells", "experiment": "Head-to-head MTT antiproliferative assay, 6-day exposure", "assay_type": "cell-based, human", "description": "as §1, §2"}, "[5]": {"tested_on": "Br-001 tumor xenografts", "experiment": "Patient-derived TNBC xenograft (PDX), IP", "assay_type": "in vivo, mice", "settings": "10 mg/kg/day IP", "description": "Female NSG (NOD.Cg-PrkdcscidIl2rgtm1Wjl/SzJ) mice (Jackson Laboratory) 5–6 weeks of age were housed under complete aseptic conditions, fed autoclaved pellets and sterile water ad libitum. Primary triple negative breast cancer tissue from a patient in University of Maryland Medical Center ([…]) was excised during surgery, de-identified and then implanted into the mammary fat pad of female NSG mice. After expansion and viable freeze back, breast PDX (Br-001) was grown in three mice as a subcutaneous tumor. When tumors reached approximately 600–800 mm^3, mice were euthanized, tumors excised aseptically and cut into 3 mm × 3 mm pieces and re-implanted subcutaneously in female NSG mice. The established xenografts were subsequently passaged from mouse to mouse to expand xenograft numbers. […] Tumors were measured and processed as described for the MDA-MB-231 xenograft model."}, "[6]": {"tested_on": "Mnk1/2", "parameters": "method as in PMID 24504069", "settings": "cited from earlier work"}}, "note": "pKd: −log10 of the molar value. Read-outs that look alike come from different tables or passages of the source."}
{"smiles": "CC1=C(/C=C/C(C)=C/C=C/C(C)=C/C(=O)Nc2ccc(F)cc2)C(C)(C)CCC1n1ccnc1", "note": "(racemic) [VNLG-152R, 4-(±)-(1H-imidazol-1-yl)-N-(4-fluorophenyl)-(E)-retinamide]", "values": [{"measurement": "pKd", "setting": "[1]", "value": 5.19}, {"measurement": "eIF4G and 4E-BP1 association with eIF4E", "setting": "[2]", "value": "decreased eIF4G and increased eukaryotic translation initiation factor 4E-binding protein 1 (4E-BP1) association with eIF4E"}, {"measurement": "GI50", "setting": "[3]", "value": 890, "unit": "nM"}, {"measurement": "fold difference of GI50 (eFT508 vs VNLG-152R)", "setting": "[3]", "value": 8, "unit": "fold"}, {"measurement": "GI50", "setting": "[3]; Homo sapiens, MDA-MB-231, 144 h", "value": 891, "unit": "nM"}, {"measurement": "GI50", "setting": "[4]", "value": 500, "unit": "nM"}, {"measurement": "fold difference of GI50 (eFT508 vs VNLG-152R)", "setting": "[4]", "value": 105, "unit": "fold"}, {"measurement": "GI50", "setting": "[4]; Homo sapiens, MDA-MB-468, 144 h", "value": 501, "unit": "nM"}, {"measurement": "changes in body weights", "setting": "[5]", "value": "No significant changes in body weights were observed"}, {"measurement": "tumor growth inhibition (TGI)", "setting": "[5]; 5 days a week, 17 days", "value": 73.3, "unit": "%"}, {"measurement": "inhibition of Mnk1/2 kinase activities", "setting": "[6]", "value": "no inhibition of Mnk1/2 kinase activities"}]}
